According to patent publication US10213415B2, “Compounds as opioid receptor modulators” (JANSSEN PHARMACEUTICA NV, priority 2004, dated 2019):

Legend:
mu opioid receptor = molecular target: T1, mu opioid receptor (Rattus norvegicus, UniProt P33535); assay: Rat Brain Mu Opioid Receptor Binding Assay (and Version 2a, [3H]DAMGO); details: rat forebrain membranes, margin of error 10-20%, read-out: r Ki μ
T1 construct: from tissue; host or cells: forebrain of male Wistar rats
Protocol: Male, Wistar rats (150-250 g, VAF, Charles River, Kingston, N.Y.) are killed by cervical dislocation, and their brains removed and placed immediately in ice cold Tris HCl buffer (50 mM, pH 7.4). The forebrains are separated from the remainder of the brain by a coronal transection, beginning dorsally at the colliculi and passing ventrally through the midbrain-pontine junction. After dissection, the forebrains are homogenized in Tris buffer in a Teflon® glass homogenizer. The homogenate is diluted to a concentration of 1 g of forebrain tissue per 80 mL Tris and centrifuged at 39,000×g for 10 min. The pellet is resuspended in the same volume of Tris buffer containing 5 mM MgCl2 with several brief pulses from a Polytron homogenizer. This particulate preparation is used for the mu-opioid binding assays. […] The filters are rinsed three times with 2 mL of 10 mM HEPES (pH7.4), and dried in a microwave oven 2 min twice. To each sample area 2×50 μL of Betaplate Scint scintillation fluid (LKB) is added and analyzed on a LKB (Wallac) 1205 BetaPlate liquid scintillation counter.
(§1) The data are used to calculate either the % inhibition compared to control binding (when only a single concentration of test compound is evaluated) or a Ki value (when a range of concentrations is tested). % inhibition is calculated as: [(total dpm-test compound dpm)/(total dpm-nonspecific dpm)]*100. Kd and Ki values were calculated using GraphPad PRISM data analysis program.
Male, Wistar rats (150-250 g, VAF, Charles River, Kingston, N.Y.) were killed by cervical dislocation, and their brains removed and placed immediately in ice-cold Tris HCl buffer (50 mM, pH 7.4). The forebrains were separated from the remainder of the brain by a coronal transection, beginning dorsally at the colliculi and passing ventrally through the midbrain-pontine junction. After dissection, the forebrains were homogenized in Tris buffer in a Teflon®-glass homogenizer. The homogenate was diluted to a concentration of 1 g of forebrain tissue per 80 mL Tris and centrifuged at 39,000×g for 10 min. The pellet was resuspended in the same volume of Tris buffer containing 5 mM MgCl2 with several brief pulses from a Polytron homogenizer. This particulate preparation was used for the mu opioid binding assay. Following incubation with 0.8 nM of the mu selective ligand [^3H]DAMGO at 25° C. for 2.5 h in a 96-well plate with total 1 mL, the plate contents were filtered through Wallac filtermat B sheets on a Tomtec 96-well harvester. The filters were rinsed three times with 2 mL of 10 mM HEPES (pH 7.4), and dried in a microwave oven. To each sample area, Betaplate Scint scintillation fluid (LKB) was added and the resulting radioactivity quantified on a LKB (Wallac) 1205 BetaPlate liquid scintillation counter. Kd and Ki values were calculated using the GraphPad PRISM data analysis program.

[1] = molecular target: T2, mu opioid receptor (CHO-hMOR cell membranes) (Homo sapiens, UniProt P35372); assay: Mu Opioid Receptor Functional Assay: [35S]GTPγS Binding in CHO-hMOR Cell Membranes, Versions 1 and 2; assay type: biochemical; details: for MOR GTP binding assay_v1 (% I): version 1, % inhibition of agonist-stimulated GTPγS binding; for MOR GTP assay_v1 % of Basal: version 1, basal binding = 100%
T2 construct: purchased Receptor Biology, Inc. (Baltimore, Md.); host or cells: CHO cells (recombinant expression)
Protocol: CHO-hMOR cell membranes were purchased from Receptor Biology, Inc. (Baltimore, Md.). About 10 mg/ml of membrane protein was suspended in 10 mM TRIS-HCl pH 7.2, 2 mM EDTA, 10% sucrose, and the suspension kept on ice. One ml of membranes was added to 15 ml cold binding assay buffer containing 50 mM HEPES, pH 7.6, 5 mM MgCl2, 100 mM NaCl, 1 mM DTT and 1 mM EDTA. The membrane suspension was homogenized with a Polytron and centrifuged at 3,000 rpm for 10 min. The supernatant was then centrifuged at 18,000 rpm for 20 min. The pellet was resuspended in 10 ml assay buffer with a Polytron.
The membranes were preincubated with wheat germ agglutinin coated SPA beads (Amersham) at 25° C. for 45 min in the assay buffer. The SPA bead (5 mg/ml) coupled membranes (10 μg/ml) were then incubated with 0.5 nM [^35S]GTPγS in the assay buffer. […] A range of concentrations of receptor agonists was used to stimulate [^35S]GTPγS binding. Both basal and non-specific binding was tested in the absence of agonist; non-specific binding determination included 10 μM unlabeled GTPγS.
Compounds were tested for function as antagonists by evaluating their potential to inhibit agonist-stimulated GTPγS binding. Radioactivity was quantified on a Packard TopCount. The following parameters were calculated:
[formula] % Inhibition=(% stimulation by 1 μM SNC80−% stimulation by 1 μM SNC80 in presence of test compound)×100/(% Stimulation by 1 μM SNC80−100)
EC50 values were calculated using GraphPad Prism.

delta opioid receptor = molecular target: T3, delta opioid receptor (Rattus norvegicus, UniProt P33533); assay: Rat Brain Delta Opioid Receptor Binding Assay ([3H]DPDPE); details: rat forebrain membranes, margin of error 10-20%, read-out: r Ki δ
T3 construct: from tissue; host or cells: forebrain of male Wistar rats
Protocol: Male, Wistar rats (150-250 g, VAF, Charles River, Kingston, N.Y.) are killed by cervical dislocation, and their brains removed and placed immediately in ice cold Tris HCl buffer (50 mM, pH 7.4). The forebrains are separated from the remainder of the brain by a coronal transection, beginning dorsally at the colliculi and passing ventrally through the midbrain-pontine junction. After dissection, the forebrains are homogenized in Tris buffer in a Teflon® glass homogenizer. The homogenate is diluted to a concentration of 1 g of forebrain tissue per 80 mL Tris and centrifuged at 39,000×g for 10 min. The pellet is resuspended in the same volume of Tris buffer containing 5 mM MgCl2 with several brief pulses from a Polytron homogenizer. This particulate preparation is used for the delta opioid binding assays. Following incubation with the delta selective peptide ligand ˜4 nM [^3H]DPDPE at 25° C. for 2.5 h in a 96-well plate with total volume of 1 mL, the plate contents are filtered through Wallac filtermat B sheets on a Tomtec 96-well harvester. The filters are rinsed three times with 2 mL of 10 mM HEPES (pH 7.4), and dried in a microwave oven 2 min twice. To each sample area 2×50 μL of Betaplate Scint scintillation fluid (LKB) is added and analyzed on a LKB (Wallac) 1205 BetaPlate liquid scintillation counter.
as §1, with “dpm−test” for “dpm-test”, “dpm−nonspecific” for “dpm-nonspecific”

human mu opioid receptor = molecular target: T4, human mu opioid receptor (Homo sapiens, UniProt P35372); assay: Human Mu Opioid Receptor Binding Assay (CHO membranes, 3H-Damgo); details: read-out: hKi μ
T4 construct: purchased Perkin Elmer RBHOMM400UA; host or cells: Chinese Hamster Ovary cells (recombinant expression)
Outline: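 Membranes from CHO cells expressing human mu opioid receptor, 300 μg/mL, in 50 mM Tris pH 7.5, 5 mM MgCl2. Incubated with compound and ³H-Damgo (3.6 nM before mixing) for 2 h at room temperature, filtered, counted by scintillation. Nonspecific binding with 1 μM unlabelled Damgo.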

T1 sequence (P33535 whole entry): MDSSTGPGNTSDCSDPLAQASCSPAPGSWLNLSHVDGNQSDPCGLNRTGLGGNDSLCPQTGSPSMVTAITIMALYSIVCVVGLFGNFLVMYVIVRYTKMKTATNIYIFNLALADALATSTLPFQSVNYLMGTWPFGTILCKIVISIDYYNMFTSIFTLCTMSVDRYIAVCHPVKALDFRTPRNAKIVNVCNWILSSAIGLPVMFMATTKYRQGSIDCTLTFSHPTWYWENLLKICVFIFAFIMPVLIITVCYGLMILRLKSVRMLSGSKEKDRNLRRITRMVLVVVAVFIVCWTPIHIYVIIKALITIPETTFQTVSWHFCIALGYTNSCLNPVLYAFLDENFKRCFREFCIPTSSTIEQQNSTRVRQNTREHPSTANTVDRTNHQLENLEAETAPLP
T3 sequence (P33533 whole entry): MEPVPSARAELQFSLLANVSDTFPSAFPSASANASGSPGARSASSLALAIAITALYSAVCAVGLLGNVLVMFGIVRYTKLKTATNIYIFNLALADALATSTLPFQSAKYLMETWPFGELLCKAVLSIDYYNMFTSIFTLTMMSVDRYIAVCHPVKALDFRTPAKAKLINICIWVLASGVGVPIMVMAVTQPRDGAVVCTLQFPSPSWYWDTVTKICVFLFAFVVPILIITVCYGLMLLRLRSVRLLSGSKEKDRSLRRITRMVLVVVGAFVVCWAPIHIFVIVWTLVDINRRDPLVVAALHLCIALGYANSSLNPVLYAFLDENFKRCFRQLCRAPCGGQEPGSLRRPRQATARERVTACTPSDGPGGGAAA
T4 sequence (P35372 whole entry): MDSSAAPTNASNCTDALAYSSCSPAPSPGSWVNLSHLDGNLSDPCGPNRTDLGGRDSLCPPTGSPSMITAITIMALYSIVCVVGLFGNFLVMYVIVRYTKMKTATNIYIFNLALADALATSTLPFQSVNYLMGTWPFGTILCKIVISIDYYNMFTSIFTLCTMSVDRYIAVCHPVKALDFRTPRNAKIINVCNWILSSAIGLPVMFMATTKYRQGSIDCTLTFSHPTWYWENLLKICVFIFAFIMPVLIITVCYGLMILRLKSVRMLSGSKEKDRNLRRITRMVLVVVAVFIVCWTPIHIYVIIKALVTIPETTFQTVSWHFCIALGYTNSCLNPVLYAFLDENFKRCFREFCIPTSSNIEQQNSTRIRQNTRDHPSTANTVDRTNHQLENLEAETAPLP
T2 sequence (P35372 whole entry): as above

| Compound | Ki (mu opioid receptor) [nM] | MOR GTP binding assay_v1 (% I) [1] [%] | MOR GTP assay_v1 % of Basal [1] [%] | Ki (delta opioid receptor) [nM] | Ki (human mu opioid receptor) [nM] |
| --- | --- | --- | --- | --- | --- |
| C[C@@H](c1nc(-c2ccccc2)c[nH]1)N(C)C(=O)[C@@H](N)Cc1ccc(O)cc1 [Cpd 211] | 5.9 | 10.00 | 371.00 | 180 | – |
| Cc1cc(O)cc(C)c1C[C@H](N)C(=O)N[C@@H](Cc1cccc(C#N)c1)c1nc(-c2ccccc2)c[nH]1 [Cpd 173] | 45.7 | 85.00 | 147.00 | 5070 | – |
| Cc1cc(O)cc(C)c1C[C@H](N)C(=O)N[C@@H](Cc1ccccc1)c1nc(-c2ccccc2)c[nH]1 [Cpd 177] | 13.4 | 23.00 | 625.00 | 255 | – |
| C[C@@H](NC(=O)[C@@H](N)Cc1ccc(O)cc1)c1nc(-c2ccccc2)c[nH]1 [Cpd 212] | 103 | – | – | 1280 | 55 |
| Cc1cc(O)cc(C)c1C[C@H](N)C(=O)N[C@H](C)c1nc(-c2ccccc2)c[nH]1 [Cpd 208] | 1.3 | 1.00 | 475.00 | 33 | 1.2 |
| Cc1cc(O)cc(C)c1C[C@H](N)C(=O)N[C@@H](COCc1ccccc1)c1nc(-c2ccccc2)c[nH]1 [Cpd 175] | 3.6 | 53.00 | 471.00 | 166 | – |
| Cc1cc(O)cc(C)c1C[C@H](N)C(=O)N(Cc1ccccc1)[C@H](C)c1nc(-c2ccccc2)c[nH]1 [Cpd 220] | 157 | – | – | 6920 | 377 |
| C[C@H](c1nc(-c2ccccc2)c[nH]1)N(C)C(=O)[C@@H](N)Cc1ccc(O)cc1 [Cpd 210] | 420 | 10.00 | 414.00 | 1860 | 0.29 |
| CCNC(=O)c1cc(C)c(C[C@H](N)C(=O)N(C)[C@H](C)c2nc(-c3ccccc3)c[nH]2)c(C)c1 [Cpd 182] | 7 | 6.00 | – | 1860 | – |
| C[C@H](NC(=O)[C@@H](N)Cc1ccc(O)cc1)c1nc(-c2ccccc2)c[nH]1 [Cpd 213] | 1260 | – | – | 5660 | > 1000 |
| CCNC(=O)c1cc(C)c(C[C@H](N)C(=O)N(C)[C@@H](C)c2nc(-c3ccccc3)c[nH]2)c(C)c1 [Cpd 181] | 1.3 | 1.00 | – | 341 | – |
| Cc1cc(O)cc(C)c1C[C@H](N)C(=O)N[C@@H](C)c1nc(-c2ccccc2)c[nH]1 [Cpd 209] | 17 | 10.00 | 295.00 | 708 | 23 |
